Test system in one test: not listed separately
Put plainly: Blockade of agonist (N-allylnormetazocine)-induced stereotyped behavior and ataxia. Format: in vivo. The settings on record: 1 mg/kg i.p. test compound; 15 mg/kg i.p. N-allylnormetazocine. On the procedure:
Compounds of the invention were evaluated for their ability to block the effects of N-allylnormetazocine on the induction of stereotyped behavior and ataxia. To test for antagonism, drugs are administered at varying times before i.p. administration of 15 mg/kg of N-allylnormetazocine. Behavioral and ataxia ratings are taken at 2.5 minutes, 5 minutes, and every 5 minutes thereafter until the animal returns to control behavior. […] The lowest dose of the test compound which is capable of blocking the stereotyped behavior and ataxia induced by N-allylnormetazocine was determined.
For the molecule `c1ccc2c(c1)C1CCC2C(N2CCCCC2)CC1` (stereo not drawn) [Compound No. 1, exo- and endo-1-(2-Benzobicyclo[3.2.2]nonenyl)piperidine], the “block of N-allylnormetazocine-induced stereotyped behavior” value is “fully blocked”.

The target in another test is sigma receptor. Kind of test: Radioreceptor assay: sigma receptor, displacement of [^3 H]-3-(+)-PPP. It is filed as binding, male Sprague-Dawley rats. The settings on record: units ± SEM; rat brain crude membranes; 2 nM [^3 H]-(+)-3-PPP; 1 hr incubation at room temperature; pH 7.4; read-out: Ki apparent. On the procedure: To determine the effects of the compounds in a sigma receptor assay, crude membrane preparations were prepared as follows. Brains from male Sprague-Dawley rats were homogenized in 10 volumes (wt/vol) of 0.32M sucrose, using a Polytron grinder. The homogenate was centrifuged at 900×G for 10 minutes at 4° C. The supernatant was collected and centrifuged at 22,000×g for 20 minutes at 4° C. The pellet was resuspended in 10 volumes of 50 mM Tris/HCl buffer (pH 7.4) and centrifuged at 22,000×g for 20 minutes at 4° C. The pellet was resuspended in 5 mM Tris/HCl buffer (pH 7.4) to give a final concentration of 250 mg/ml of the crude material. Incubation tubes were prepared in triplicate and contained 0.1 ml of tissue suspension, 2 nM of [^3 H]-(+)-1-propyl-3-(3-hydroxyphenyl)piperidine [^3 H]-3-(+)-PPP, and varying concentrations of the displacing ligand (0.1-1,000 nM) in a final volume of 0.5 ml. After a 1 hr incubation at room temperature, the contents of the test tubes were filtered through GS filter paper which had been presoaked for at least 2 hours in 0.05% polyethyleneimine. The test tubes were rinsed three times with Tris/HCl buffer. Radioactivity on the filters was determined using liquid scintillation spectrometry and inhibition curves were calculated according to the method of Cheng and Prusoff [Biochem. Pharmacol., 22, 3099-3108 (1973)].
With `OCCN1CCN(C2CCC3CCC2c2ccccc23)CC1` (stereo not drawn) [Compound No. 4, endo- and exo-1-(2-Benzobicyclo[3.2.2]nonenyl)-4-(2-hydroxyethyl)piperazine], the Ki was 305 ± 20 nM.

On to `CN1CCN(C2CCC3CCC2c2ccccc23)CC1` (stereo not drawn) [Compound No. 5], for which the Ki was 16000 ± 4000 nM.

Turning to `c1ccc2c(c1)C1CCC2C(N2CCCCC2)CC1` (stereo not drawn) [Compound No. 2, exo-1-(2-Benzobicyclo[3.2.2]nonenyl)piperidine], the Ki is 10 ± 2 nM. The same measure, in the same setting: under `c1ccc2c(c1)C1CCC2C(N2CCCCC2)CC1` (stereo not drawn) [Compound No. 1, exo- and endo-1-(2-Benzobicyclo[3.2.2]nonenyl)piperidine] stands 6 ± 1 nM; under `c1ccc2c(c1)C1CCC2C(N2CCCCC2)CC1` (stereo not drawn) [Compound No. 3, endo-1-(2-Benzobicyclo[3.2.2]nonenyl)piperidine], 150 ± 20 nM.

For the origin of these results see US5098916A, “Propanobicyclic amine derivatives for CNS disorders” (G. D. Searle & Co., priority 1990, dated 1992).
